For one molecule, hygroscopicity results are on record in patent publication US20110086884A1, “BARIUM SALT OF BENZIMIDAZOLE DERIVATIVE” (priority 2003, published 2011).

The data set is described as follows: hygroscopicity of the solid salt. The settings on record: both crystalline and amorphous forms. The class given is physicochemical.

For the molecule `COc1ccc2[nH]c([S@@+]([O-])Cc3ncc(C)c(OC)c3C)nc2c1` [(S)-omeprazole barium, (S)-5-methoxy-2-[[(4-methoxy-3,5-dimethyl-2-pyridinyl)-methyl]sulfinyl]-1H-benzimidazole], the hygroscopicity result is recorded as “non-hygroscopic”.
